ChEMBL document CHEMBL1154225, “Design and synthesis of bile acid-based amino sterols as antimicrobial agents” (Bioorg Med Chem Lett, 2009)
Converted amounts (≈) assume the structure as drawn.

Key:
Assay type in all cases: functional, organism-based; call rule not given here
Candida parapsilosis = assay: Antifungal activity against Candida parapsilosis ATCC 22019 after 48 hrs by microbroth dilution technique; conditions: Lodderomyces parapsilosis, ATCC 22019, 48 h
Cryptococcus neoformans = assay: Antifungal activity against Cryptococcus neoformans after 72 hrs by microbroth dilution technique
[1] = tested on: Trichophyton mentagrophytes; assay: Antifungal activity against Trichophyton mentagrophytes after 96 hrs by microbroth dilution technique
Sporothrix schenckii = assay: Antifungal activity against Sporothrix schenckii after 72 hrs by microbroth dilution technique
Candida albicans = assay: Antifungal activity against Candida albicans after 48 hrs by microbroth dilution technique
Aspergillus fumigatus = assay: Antifungal activity against Aspergillus fumigatus AF-27 after 72 hrs by microbroth dilution technique; conditions: AF-27, 72 h
Pseudomonas aeruginosa = assay: Antibacterial activity against Pseudomonas aeruginosa ATCC BAA-427 after 24 hrs by NCCLS method
Escherichia coli = assay: Antibacterial activity against Escherichia coli ATCC 9637 after 24 hrs by NCCLS method
Klebsiella pneumoniae = assay: Antibacterial activity against Klebsiella pneumoniae ATCC 27736 after 24 hrs by NCCLS method
Staphylococcus aureus = assay: Antibacterial activity against Staphylococcus aureus ATCC 25923 after 24 hrs by NCCLS method
[2] = Pseudomonas aeruginosa, ATCC BAA-427, 24 h
[3] = Pseudomonas aeruginosa, ATCC BAA-427, 24 h, read-out: IC50
[4] = Escherichia coli, ATCC 9637, 24 h
[5] = Escherichia coli, ATCC 9637, 24 h, read-out: IC50
[6] = Klebsiella pneumoniae, ATCC 27736, 24 h
[7] = Klebsiella pneumoniae, ATCC 27736, 24 h, read-out: IC50

Molecule | MIC (Candida parapsilosis) | MIC (Cryptococcus neoformans) | MIC [1] | MIC (Sporothrix schenckii) | MIC (Candida albicans) | MIC (Aspergillus fumigatus) | MIC (Pseudomonas aeruginosa; [2]) | MIC (Escherichia coli; [4]) | IC50 (Escherichia coli; [5]) | IC50 (Candida parapsilosis) | IC50 (Cryptococcus neoformans) | MIC (Klebsiella pneumoniae; [6]) | IC50 [1] | IC50 (Sporothrix schenckii) | IC50 (Candida albicans) | IC50 (Staphylococcus aureus; ATCC 25923, 24 h) | MIC (Staphylococcus aureus; ATCC 25923, 24 h) | IC50 (Aspergillus fumigatus) | IC50 (Klebsiella pneumoniae; [7]) | other results
OC(Cn1cncn1)(Cn1cncn1)c1ccc(F)cc1F [FLUCONAZOLE] | 1 µg/mL (≈ 3.27 µM) | 1.9 µg/mL (≈ 6.2 µM) | 1 µg/mL (≈ 3.27 µM) | 2 µg/mL (≈ 6.53 µM) | 0.5 µg/mL (≈ 1.63 µM) | 2 µg/mL (≈ 6.53 µM) |  |  |  |  |  |  |  |  |  |  |  |  |  | 
COC(=O)CC[C@@H](C)[C@H]1CC[C@H]2[C@@H]3CC[C@@H]4C[C@](O)(CN)CC[C@]4(C)[C@H]3C[C@H](O)[C@]12C | > 50 µg/mL | 50 µg/mL (≈ 115 µM) | 25 µg/mL (≈ 57.4 µM) | 25 µg/mL (≈ 57.4 µM) | 50 µg/mL (≈ 115 µM) | 50 µg/mL (≈ 115 µM) | > 50 µg/mL | > 50 µg/mL | > 50 µg/mL | > 50 µg/mL | 50 µg/mL (≈ 115 µM) | 50 µg/mL (≈ 115 µM) | 24.9 µg/mL (≈ 57.1 µM) | 12.6 µg/mL (≈ 29 µM) | 50 µg/mL (≈ 115 µM) | 14.6 µg/mL (≈ 33.4 µM) | 25 µg/mL (≈ 57.4 µM) | 50 µg/mL (≈ 115 µM) |  | IC50 (Pseudomonas aeruginosa; [3]): > 50 µg/mL; IC50 (Klebsiella pneumoniae): Not Active
COC(=O)CC[C@@H](C)[C@H]1CC[C@H]2[C@@H]3[C@H](O)C[C@@H]4C[C@](O)(CN=[N+]=[N-])CC[C@]4(C)[C@H]3C[C@H](O)[C@]12C | > 50 µg/mL | > 50 µg/mL | > 50 µg/mL | > 50 µg/mL | > 50 µg/mL | > 50 µg/mL | > 50 µg/mL | > 50 µg/mL |  |  |  |  |  |  |  |  | > 50 µg/mL |  |  | 
COC(=O)CC[C@@H](C)[C@H]1CC[C@H]2[C@@H]3[C@H](O)C[C@@H]4C[C@](O)(CN)CC[C@]4(C)[C@H]3C[C@H](O)[C@]12C | > 50 µg/mL | > 50 µg/mL | 25 µg/mL (≈ 55.4 µM) | 50 µg/mL (≈ 111 µM) | 50 µg/mL (≈ 111 µM) | > 50 µg/mL | > 50 µg/mL | > 50 µg/mL | > 50 µg/mL | > 50 µg/mL | > 50 µg/mL | 25 µg/mL (≈ 55.4 µM) | 21.4 µg/mL (≈ 47.4 µM) | 50 µg/mL (≈ 111 µM) | > 50 µg/mL | 18.4 µg/mL (≈ 40.8 µM) | 25 µg/mL (≈ 55.4 µM) | > 50 µg/mL | 18.4 µg/mL (≈ 40.8 µM) | IC50 (Pseudomonas aeruginosa; [3]): > 50 µg/mL
COC(=O)CC[C@@H](C)[C@H]1CC[C@H]2[C@@H]3[C@H](O)C[C@@H]4C[C@H](O)CC[C@]4(C)[C@H]3C[C@H](O)[C@]12C [CHOLIC ACID, METHYL ESTER] | > 50 µg/mL | > 50 µg/mL | > 50 µg/mL | > 50 µg/mL | > 50 µg/mL | > 50 µg/mL | > 50 µg/mL | > 50 µg/mL |  |  |  |  |  |  |  |  | > 50 µg/mL |  |  | 
COC(=O)CC[C@@H](C)[C@H]1CC[C@H]2[C@@H]3CC[C@@H]4C[C@](O)(CN=[N+]=[N-])CC[C@]4(C)[C@H]3C[C@H](O)[C@]12C | > 50 µg/mL | > 50 µg/mL | > 50 µg/mL | > 50 µg/mL | > 50 µg/mL | > 50 µg/mL | > 50 µg/mL | > 50 µg/mL |  |  |  |  |  |  |  |  | > 50 µg/mL |  |  | 
COC(=O)CC[C@@H](C)[C@H]1CC[C@H]2[C@@H]3[C@H](O)C[C@@H]4C[C@](O)(CNCCN)CC[C@]4(C)[C@H]3C[C@H](O)[C@]12C | 25 µg/mL (≈ 50.5 µM) | 25 µg/mL (≈ 50.5 µM) | 6.25 µg/mL (≈ 12.6 µM) | 25 µg/mL (≈ 50.5 µM) | 25 µg/mL (≈ 50.5 µM) | 50 µg/mL (≈ 101 µM) | 50 µg/mL (≈ 101 µM) | 25 µg/mL (≈ 50.5 µM) | 17.2 µg/mL (≈ 34.8 µM) | 16.4 µg/mL (≈ 33.2 µM) | 14.6 µg/mL (≈ 29.4 µM) | 6.25 µg/mL (≈ 12.6 µM) | 6.25 µg/mL (≈ 12.6 µM) | 18.3 µg/mL (≈ 37 µM) | 24 µg/mL (≈ 48.6 µM) | 4.12 µg/mL (≈ 8.33 µM) | 6.25 µg/mL (≈ 12.6 µM) | 50 µg/mL (≈ 101 µM) | 4.68 µg/mL (≈ 9.46 µM) | IC50 (Pseudomonas aeruginosa): Not Active
COC(=O)CC[C@@H](C)[C@H]1CC[C@H]2[C@@H]3CC[C@@H]4C[C@H](O)CC[C@]4(C)[C@H]3C[C@H](O)[C@]12C [METHYL DEOXYCHOLATE] | > 50 µg/mL | > 50 µg/mL | > 50 µg/mL | > 50 µg/mL | > 50 µg/mL | > 50 µg/mL | > 50 µg/mL | > 50 µg/mL |  |  |  |  |  |  |  |  | > 50 µg/mL |  |  | 
GENTAMICIN |  |  |  |  |  |  |  |  |  |  |  |  |  |  |  |  |  |  |  | MIC (Pseudomonas aeruginosa): 25 µg/mL; MIC (Escherichia coli): 0.18 µg/mL; MIC (Klebsiella pneumoniae): 0.78 µg/mL; MIC (Staphylococcus aureus): 6.25 µg/mL
COC(=O)CC[C@@H](C)[C@H]1CC[C@H]2[C@@H]3CC[C@@H]4C[C@](O)(CNCCN)CC[C@]4(C)[C@H]3C[C@H](O)[C@]12C | 25 µg/mL (≈ 52.2 µM) | 25 µg/mL (≈ 52.2 µM) | 6.25 µg/mL (≈ 13.1 µM) | 12.5 µg/mL (≈ 26.1 µM) | > 50 µg/mL | 12.5 µg/mL (≈ 26.1 µM) | 50 µg/mL (≈ 104 µM) | 50 µg/mL (≈ 104 µM) |  | 18.4 µg/mL (≈ 38.4 µM) | 17.2 µg/mL (≈ 36 µM) | 6.25 µg/mL (≈ 13.1 µM) | 6.25 µg/mL (≈ 13.1 µM) | 3.36 µg/mL (≈ 7.02 µM) | 25 µg/mL (≈ 52.3 µM) | 5.14 µg/mL (≈ 10.7 µM) | 6.25 µg/mL (≈ 13.1 µM) | 8.14 µg/mL (≈ 17 µM) | 5.21 µg/mL (≈ 10.9 µM) | IC50 (Pseudomonas aeruginosa): Not Active; IC50 (Escherichia coli): Not Active
